Drawing on patent US9210927B2, “Pesticidal compositions and processes related thereto” (Dow AgroSciences LLC, priority 2013, dated 2015), this text covers pest or weed control for 31 molecules.

What all share (type): in vivo
Assay [1] concerns CEW (Helicoverpa zea). In words: Bioassays on Corn Earworm (CEW), 128-well diet tray assay. The settings on record: Helicoverpa zea, 168 h; percent mortality, second instar larvae, 50 μg/cm^2 on artificial diet, five to seven days, 25° C.; read-out: CEW Rating. Put shortly: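 Percent larval mortality, averaged across eight wells, read after five to seven days at 25 °C under 14:10 light-dark. Each well held one to five second-instar larvae on diet surface-dosed at 50 μg/cm^2 (compound applied in acetone-water 90:10, then dried).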

Assay [2] relates to GPA (Myzus persicae). In words: Bioassays on Green Peach Aphid (GPA), foliar spray on cabbage seedlings. The conditions noted are these: 72 h, corrected % control (Abbott), 200 ppm spray on cabbage seedlings, three days, read-out: GPA Rating. Here is the method:
Bioassays on Green Peach Aphid (“GPA”) (Myzus persicae) Certain molecules disclosed in this document were tested against GPA using procedures described in the following example. In the reporting of the results, the “GPA Rating Table” was used (See Table Section). Cabbage seedlings grown in 3-inch pots, with 2-3 small (3-5 cm) true leaves, were used as test substrate. The seedlings were infested with 20-50 GPA (wingless adult and nymph stages) one day prior to chemical application. Four pots with individual seedlings were used for each treatment. Test compounds (2 mg) were dissolved in 2 mL of acetone/MeOH (1:1) solvent, forming stock solutions of 1000 ppm test compound. The stock solutions were diluted 5× with 0.025% Tween 20 in H2O to obtain the solution at 200 ppm test compound. A hand-held aspirator-type sprayer was used for spraying a solution to both sides of […] leaves until runoff. Reference plants (solvent check) were sprayed with the diluent only containing 20% by volume of acetone/MeOH (1:1) solvent. Treated plants were held in a holding room for three days at approximately 25° C. and ambient relative humidity (RH) prior to grading. Evaluation was conducted by counting the number of live aphids per plant under a microscope. Percent Control was measured by using Abbott's correction formula (W. S. Abbott, “A Method of Computing the Effectiveness of an Insecticide” J. Econ. Entomol. 18 (1925), pp. 265-267) as follows. Corrected % Control=100*(X−Y)/X • where • X=No. of live aphids on solvent check plants and • Y=No. of live aphids on treated plants The results are indicated in the table entitled “Table 3: Assay Results” (See Table Section).

In assay [3] the test system is BAW (Spodoptera exigua). In words: Bioassays on Beet Armyworm (BAW), 128-well diet tray assay. The conditions noted are these: Spodoptera exigua, 168 h, read-out: BAW Rating. Put shortly:
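Diet surface dosed at 50 μg/cm^2 (acetone-water 90:10 vehicle), dried, then infested with second-instar larvae, one to five per well. After five to seven days at 25° C. under 14:10 light-dark, mortality per well was scored and averaged over eight wells.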

On to `O=C(NCc1ccc(Cl)nc1)c1ccc(/C=C/C(c2cc(Cl)c(Cl)c(Cl)c2)C(F)(F)F)cc1Cl` (stereo not drawn) [AC28], for which the pest or weed control at 50 µg/cm2 in assay [1] and in assay [3] was 50 to 100% each time. Also, the pest or weed control at 200 ppm in assay [2] is 0 to 80%.
In the case of `O=C(NC1CSC1)c1ccc(/C=C/C(c2cc(Cl)c(Cl)c(Cl)c2)C(F)(F)F)cc1Cl` (stereo not drawn) [AC29], the pest or weed control at 50 µg/cm2 in assay [1] and in assay [3] was 50 to 100% throughout. Moreover, the pest or weed control at 200 ppm in assay [2] was in the range of 0 to 80%.
Regarding `O=C(NC1CS(=O)(=O)C1)c1ccc(/C=C/C(c2cc(Cl)c(Cl)c(Cl)c2)C(F)(F)F)cc1Cl` (stereo not drawn) [AC30], the pest or weed control at 50 µg/cm2 in assay [1] and in assay [3] was 50 to 100% in each case. The pest or weed control at 200 ppm in assay [2] was in the range of 0 to 80%.
Consider `O=C(NCc1ccc(Cl)nc1)c1ccc(/C=C/C(c2cc(Cl)c(Cl)c(Cl)c2)C(F)(F)F)cc1Br` (stereo not drawn) [AC31], for which the pest or weed control at 50 µg/cm2 in assay [1] and in assay [3] was 50 to 100% in each case. For the same molecule, the pest or weed control at 200 ppm in assay [2] lay in the range of 0 to 80%.
For `O=C(NC1CSC1)c1ccc(/C=C/C(c2cc(Cl)c(Cl)c(Cl)c2)C(F)(F)F)cc1Br` (stereo not drawn) [AC32], the pest or weed control at 50 µg/cm2 in assay [1] and in assay [3] was 50 to 100% in each case. Besides, in assay [2], the pest or weed control at 200 ppm lay in the range of 0 to 80%.
As for `O=C(NC1CS(=O)(=O)C1)c1ccc(/C=C/C(c2cc(Cl)c(Cl)c(Cl)c2)C(F)(F)F)cc1Br` (stereo not drawn) [AC33], the pest or weed control at 50 µg/cm2 in assay [1] and in assay [3] was 50 to 100% throughout. The pest or weed control at 200 ppm in assay [2] lay in the range of 0 to 80%.
In the case of `O=C(NC1CSC1)c1ccc(/C=C/C(c2cc(Cl)c(Cl)c(Cl)c2)C(F)(F)F)cc1C(F)(F)F` (stereo not drawn) [AC34], the pest or weed control at 50 µg/cm2 in assay [1] and in assay [3] was 50 to 100% throughout. Also, the pest or weed control at 200 ppm in assay [2] was in the range of 0 to 80%.
For `O=C(NCc1ccc(Cl)nc1)c1ccc(/C=C/C(c2cc(Cl)c(Cl)c(Cl)c2)C(F)(F)F)cc1C(F)(F)F` (stereo not drawn) [AC36], the pest or weed control at 50 µg/cm2 in assay [1] and in assay [3] was 50 to 100% each time. For the same molecule, the pest or weed control at 200 ppm in assay [2] lay in the range of 0 to 80%.
As for `Cc1cc(/C=C/C(c2ccc(Cl)c(Cl)c2)C(F)(F)F)ccc1C(=O)NCc1ccc(Cl)nc1` (stereo not drawn) [AC37], the pest or weed control at 50 µg/cm2 in assay [1] and in assay [3] was 50 to 100% each time. Also, in assay [2], the pest or weed control at 200 ppm fell in the range of 0 to 80%.
On to `Cc1cc(/C=C/C(c2cc(Cl)cc(Cl)c2)C(F)(F)F)ccc1C(=O)NCc1cnccn1` (stereo not drawn) [AC43], for which the pest or weed control at 50 µg/cm2 in assay [1] and in assay [3] was 50 to 100% each time. The pest or weed control at 200 ppm in assay [2] lay within 0 to 80%.
For the molecule `Cc1cc(/C=C/C(c2cc(Cl)cc(Cl)c2)C(F)(F)F)ccc1C(=O)NCc1ccc(Cl)cc1` (stereo not drawn) [AC48], the pest or weed control at 50 µg/cm2 in assay [1] and in assay [3] was 50 to 100% throughout. Further, in assay [2], the pest or weed control at 200 ppm was 0 to 80%.
As for `O=C(NCc1ccc(Cl)nc1)c1ccc(/C=C/C(c2cc(Cl)cc(Cl)c2)C(F)(F)F)cc1F` (stereo not drawn) [AC49], the pest or weed control at 50 µg/cm2 in assay [1] and in assay [3] was 50 to 100% each time. In addition, the pest or weed control at 200 ppm in assay [2] lay within 0 to 80%.
For `Cc1cc(/C=C/C(c2cc(Cl)cc(Cl)c2)C(F)(F)F)ccc1C(=O)NCC(=O)N(C)CC(F)(F)F` (stereo not drawn) [AC51], the pest or weed control at 50 µg/cm2 in assay [1] and in assay [3] was 50 to 100% throughout. Besides, the pest or weed control at 200 ppm in assay [2] lay within 0 to 80%.
For `Cc1cc(/C=C/C(c2cc(Cl)c(F)c(Cl)c2)C(F)(F)F)ccc1C(=O)NC1CCOCC1` (stereo not drawn) [AC52], the pest or weed control at 50 µg/cm2 in assay [1] and in assay [3] was 50 to 100% each time. Also, the pest or weed control at 200 ppm in assay [2] was 0 to 80%.
With `Cc1cc(/C=C/C(c2cc(Cl)c(F)c(Cl)c2)C(F)(F)F)ccc1C(=O)NCc1ccc(Cl)cn1` (stereo not drawn) [AC53], the pest or weed control at 50 µg/cm2 in assay [1] and in assay [3] was 50 to 100% in each case. In assay [2], the pest or weed control at 200 ppm lay within 0 to 80%.
For `Cc1cc(/C=C/C(c2cc(Cl)c(F)c(Cl)c2)C(F)(F)F)ccc1C(=O)NCc1ccnc(Cl)c1` (stereo not drawn) [AC54], the pest or weed control at 50 µg/cm2 in assay [1] and in assay [3] was 50 to 100% throughout. Moreover, the pest or weed control at 200 ppm in assay [2] is 0 to 80%.
As to `CC(C)(C)OC(=O)CNC(=O)c1ccc(/C=C/C(c2cc(Cl)c(Cl)c(Cl)c2)C(F)(F)F)cc1Br` (stereo not drawn) [AC58], the pest or weed control at 50 µg/cm2 in assay [1] and in assay [3] was 50 to 100% throughout. In addition, the pest or weed control at 200 ppm in assay [2] was 0 to 80%.
For the molecule `Cc1cc(/C=C/C(c2cc(Cl)cc(Cl)c2)C(F)(F)F)ccc1C(=O)Nc1ccc(Cl)nc1` (stereo not drawn) [AC59], the pest or weed control at 50 µg/cm2 in assay [1] and in assay [3] was 50 to 100% each time. The pest or weed control at 200 ppm in assay [2] is 0 to 80%.
As to `O=C(NC1CSC1)c1ccc(/C=C/C(c2cc(Cl)cc(Cl)c2)C(F)(F)F)cc1F` (stereo not drawn) [AC61], the pest or weed control at 50 µg/cm2 in assay [1] and in assay [3] was 50 to 100% throughout. The pest or weed control at 200 ppm in assay [2] was 0 to 80%.
On to `O=C(NCc1ccc(Cl)nc1)c1ccc(/C=C/C(c2cc(Cl)c(F)c(Cl)c2)C(F)(F)F)cc1Br` (stereo not drawn) [AC63], for which the pest or weed control at 50 µg/cm2 in assay [1] and in assay [3] was 50 to 100% in each case. For the same molecule, the pest or weed control at 200 ppm in assay [2] fell in the range of 0 to 80%.
`O=C(CNC(=O)c1ccc(/C=C/C(c2cc(Cl)c(Cl)c(Cl)c2)C(F)(F)F)cc1Cl)NCC(F)(F)F` (stereo not drawn) [AC64, (E)-2-Chloro-N-(2-oxo-2-((2,2,2-trifluoroethyl)amino)ethyl)-4-(4,4,4-trifluoro-3-(3,4,5-trichlorophenyl)but-1-en-1-yl)benzamide]: the pest or weed control at 50 µg/cm2 in assay [1] and in assay [3] was 50 to 100% throughout. The pest or weed control at 200 ppm in assay [2] is 0 to 80%.
With `O=C(NCc1ccc(Cl)nc1)c1ccc(/C=C/C(c2cc(Cl)c(F)c(Cl)c2)C(F)(F)F)cc1F` (stereo not drawn) [AC65], the pest or weed control at 50 µg/cm2 in assay [1] and in assay [3] was 50 to 100% throughout. Besides, in assay [2], the pest or weed control at 200 ppm was 0 to 80%.
Consider `O=C(CNC(=O)c1ccc(/C=C/C(c2cc(Cl)c(Cl)c(Cl)c2)C(F)(F)F)cc1Br)NCC(F)(F)F` (stereo not drawn) [AC66], for which the pest or weed control at 50 µg/cm2 in assay [1] and in assay [3] was 50 to 100% in each case. Moreover, in assay [2], the pest or weed control at 200 ppm lay within 0 to 80%.
Regarding `O=C(NC1CSC1)c1ccc(/C=C/C(c2cc(Cl)c(F)c(Cl)c2)C(F)(F)F)cc1F` (stereo not drawn) [AC67], the pest or weed control at 50 µg/cm2 in assay [1] and in assay [3] was 50 to 100% throughout. Besides, the pest or weed control at 200 ppm in assay [2] lay within 0 to 80%.
With `Cc1cc(/C=C/C(c2cc(Cl)c(F)c(Cl)c2)C(F)(F)F)ccc1C(=O)NCC(=O)NCC(F)(F)F` (stereo not drawn) [AC69], the pest or weed control at 50 µg/cm2 in assay [1] and in assay [3] was 50 to 100% throughout. The pest or weed control at 200 ppm in assay [2] was 80 to 100%.
Consider `COc1cc(/C=C/C(c2cc(Cl)c(F)c(Cl)c2)C(F)(F)F)ccc1C(=O)NC1CSC1` (stereo not drawn) [AC71], for which the pest or weed control at 50 µg/cm2 in assay [1] and in assay [3] was 50 to 100% throughout. The pest or weed control at 200 ppm in assay [2] is 0 to 80%.
Take `CCc1cc(/C=C/C(c2cc(Cl)c(F)c(Cl)c2)C(F)(F)F)ccc1C(=O)NCc1ccc(Cl)nc1` (stereo not drawn) [AC72]: the pest or weed control at 50 µg/cm2 in assay [1] and in assay [3] was 50 to 100% throughout. Also, in assay [2], the pest or weed control at 200 ppm was 0 to 80%.
With `O=C(NCc1ccc(C(F)(F)F)nc1)c1ccc(/C=C/C(c2cc(Cl)c(Cl)c(Cl)c2)C(F)(F)F)cc1Br` (stereo not drawn) [AC75], the pest or weed control at 50 µg/cm2 in assay [1] and in assay [3] was 50 to 100% in each case. Also, the pest or weed control at 200 ppm in assay [2] was in the range of 0 to 80%.
In the case of `Cc1cc(/C=C/C(c2cc(Cl)c(F)c(Cl)c2)C(F)(F)F)ccc1C(=O)NCc1cc(Cl)ccn1` (stereo not drawn) [AC77], the pest or weed control at 50 µg/cm2 in assay [1] and in assay [3] was 50 to 100% each time. In assay [2], the pest or weed control at 200 ppm was in the range of 0 to 80%.
For the molecule `Cc1cc(/C=C/C(c2cc(Cl)c(Cl)c(Cl)c2)C(F)(F)F)ccc1C(=O)NCC(=O)NCC(F)(F)F` (stereo not drawn) [AC78], the pest or weed control at 50 µg/cm2 in assay [1] and in assay [3] was 50 to 100% each time. Further, in assay [2], the pest or weed control at 200 ppm fell in the range of 80 to 100%.
`O=C(CNC(=O)c1ccc(/C=C/C(c2cc(Cl)c(F)c(Cl)c2)C(F)(F)F)cc1Br)NCC(F)(F)F` (stereo not drawn) [AC79, (E)-2-Bromo-4-(3-(3,5-dichloro-4-fluorophenyl)-4,4,4-trifluorobut-1-en-1-yl)-N-(2-oxo-2-((2,2,2-trifluoroethyl)amino)ethyl)benzamide]: the pest or weed control at 50 µg/cm2 in assay [1] and in assay [3] was 50 to 100% throughout. Moreover, in assay [2], the pest or weed control at 200 ppm lay in the range of 80 to 100%.
